Our source for the inhibition values is patent publication US12122763B2, “Substituted piperidines for androgen receptor degradation” (UBIX THERAPEUTICS, INC., priority 2020, dated 2024).

As a reminder, the inhibition is the drop in the measured response relative to a control, in per cent.

The assay addresses T1, Androgen Receptor (AR) protein (Homo sapiens, UniProt P10275, T878A).
T1 construct: endogenous in cells; host or cells: LNCaP
Nature of the assay: Androgen Receptor (AR) protein degradation assay in LNCaP cells, western blotting. Type of assay: cell-based. To be noted: 20 h; for inhibition at 0.01 µM: 0.01 μM compound; for inhibition at 0.1 µM: 0.1 μM compound; for inhibition at 1 µM: 1 μM compound. In short, it runs like this: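 LNCaP prostate cancer cells were cultured 3 days, then treated with compound for 20 h. Lysates in 1% SDS buffer were normalised by BCA, and 8 μg protein was run on 4–12% Bis-Tris gels. AR was immunoblotted with chemiluminescence, using GAPDH/β-actin as loading controls.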

SMILES strings stand for the structures.

T1 sequence (P10275 whole entry T878A): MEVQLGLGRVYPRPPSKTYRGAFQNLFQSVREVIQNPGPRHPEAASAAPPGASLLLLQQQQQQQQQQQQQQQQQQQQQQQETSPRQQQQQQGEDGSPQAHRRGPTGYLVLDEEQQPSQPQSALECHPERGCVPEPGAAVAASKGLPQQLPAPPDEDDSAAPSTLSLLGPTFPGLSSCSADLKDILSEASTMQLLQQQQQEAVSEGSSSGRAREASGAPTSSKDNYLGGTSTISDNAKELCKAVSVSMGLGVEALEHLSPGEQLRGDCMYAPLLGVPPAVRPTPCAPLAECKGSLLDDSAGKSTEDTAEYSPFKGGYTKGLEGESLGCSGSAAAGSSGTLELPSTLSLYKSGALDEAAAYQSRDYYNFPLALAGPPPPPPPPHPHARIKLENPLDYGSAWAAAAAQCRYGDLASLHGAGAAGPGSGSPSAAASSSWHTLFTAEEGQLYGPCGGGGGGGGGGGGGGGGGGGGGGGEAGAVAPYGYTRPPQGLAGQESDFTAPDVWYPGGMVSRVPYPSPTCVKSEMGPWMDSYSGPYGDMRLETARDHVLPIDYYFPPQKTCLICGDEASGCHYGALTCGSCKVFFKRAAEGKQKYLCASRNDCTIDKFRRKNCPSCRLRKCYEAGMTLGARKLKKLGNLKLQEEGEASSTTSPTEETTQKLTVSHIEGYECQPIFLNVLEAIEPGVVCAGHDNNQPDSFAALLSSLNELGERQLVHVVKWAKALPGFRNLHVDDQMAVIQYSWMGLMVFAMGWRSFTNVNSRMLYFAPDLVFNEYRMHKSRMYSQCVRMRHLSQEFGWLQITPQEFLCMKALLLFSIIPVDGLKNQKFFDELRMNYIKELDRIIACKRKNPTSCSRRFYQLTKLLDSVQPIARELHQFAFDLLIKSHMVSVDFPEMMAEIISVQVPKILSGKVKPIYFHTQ
T1 sequence (Q96SW2 whole entry partner): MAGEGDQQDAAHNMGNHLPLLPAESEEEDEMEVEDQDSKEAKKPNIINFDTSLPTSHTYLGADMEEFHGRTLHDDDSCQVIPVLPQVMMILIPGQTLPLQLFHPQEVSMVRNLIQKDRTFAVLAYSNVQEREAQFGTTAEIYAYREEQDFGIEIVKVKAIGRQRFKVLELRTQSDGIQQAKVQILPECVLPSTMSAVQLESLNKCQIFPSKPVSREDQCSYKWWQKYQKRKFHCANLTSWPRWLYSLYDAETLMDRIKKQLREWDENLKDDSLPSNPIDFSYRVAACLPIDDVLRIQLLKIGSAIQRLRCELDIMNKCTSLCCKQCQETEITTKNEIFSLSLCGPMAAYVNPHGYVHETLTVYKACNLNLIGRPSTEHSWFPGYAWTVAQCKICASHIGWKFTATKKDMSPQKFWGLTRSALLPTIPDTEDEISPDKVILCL

Regarding `N#Cc1ccc(N2CCC(C(=O)Nc3ncc(N4CCC(CN5CCN(C[C@H]6CCN(c7cc8c(cc7F)C(=O)N(C7CCC(=O)NC7=O)C8=O)C6)CC5)CC4)cn3)CC2)cc1C(F)(F)F` (stereo partly drawn) [Example 160, 1-(4-cyano-3-(trifluoromethyl)phenyl)-N-(5-(4-((4-(((3R)-1-(2-(2,6-dioxopiperidin-3-yl)-6-fluoro-1,3-dioxoisoindolin-5-yl)pyrrolidin-3-yl)methyl)piperazin-1-yl)methyl)piperidin-1-yl)pyrimidin-2-yl)piperidine-4-carboxamide], the inhibition at 0.01 µM is -19%, the inhibition at 0.1 µM was 4% and the inhibition at 1 µM is 71%.
On the same counts, the results for `N#Cc1ccc(N2CCC(C(=O)Nc3ccc(CN4CCC(CN5CCN(c6ccc7c(c6)C(=O)N(C6CCC(=O)NC6=O)C7=O)CC5)CC4)cn3)CC2)cc1C(F)(F)F` (stereo not drawn) [Example 161, 1-(4-cyano-3-(trifluoromethyl)phenyl)-N-(5-((4-((4-(2-(2,6-dioxopiperidin-3-yl)-1,3-dioxoisoindolin-5-yl)piperazin-1-yl)methyl)piperidin-1-yl)methyl)pyridin-2-yl)piperidine-4-carboxamide] are 9%, 58% and 86%.
For the compound `N#Cc1ccc(N2CCC(C(=O)Nc3ccc(CN4CCN(CC5CCN(c6ccc7c(c6)C(=O)N(C6CCC(=O)NC6=O)C7=O)CC5)CC4)cn3)CC2)cc1C(F)(F)F` (stereo not drawn) [Example 162, 1-(4-cyano-3-(trifluoromethyl)phenyl)-N-(5-((4-((1-(2-(2,6-dioxopiperidin-3-yl)-1,3-dioxoisoindolin-5-yl)piperidin-4-yl)methyl)piperazin-1-yl)methyl)pyridin-2-yl)piperidine-4-carboxamide], the inhibition at 0.01 µM was 62%, the inhibition at 0.1 µM came to 95% and the inhibition at 1 µM stood at 97%.
On the same counts, the results for `N#Cc1ccc(N2CCC(C(=O)Nc3ccc(CN4CCC(CN5CCC(Oc6ccc7c(c6)C(=O)N(C6CCC(=O)NC6=O)C7=O)CC5)CC4)cn3)CC2)cc1C(F)(F)F` (stereo not drawn) [Example 163, 1-(4-cyano-3-(trifluoromethyl)phenyl)-N-(5-((4-((4-((2-(2,6-dioxopiperidin-3-yl)-1,3-dioxoisoindolin-5-yl)oxy)piperidin-1-yl)methyl)piperidin-1-yl)methyl)pyridin-2-yl)piperidine-4-carboxamide] are -14%, 60% and 78%.
On the same counts, the results for `N#Cc1ccc(N2CCC(C(=O)Nc3ccc(CC4CCN(CC5CCN(c6ccc7c(c6)C(=O)N(C6CCC(=O)NC6=O)C7=O)CC5)CC4)cn3)CC2)cc1C(F)(F)F` (stereo not drawn) [Example 164, 1-(4-cyano-3-(trifluoromethyl)phenyl)-N-(5-((1-((1-(2-(2,6-dioxopiperidin-3-yl)-1,3-dioxoisoindolin-5-yl)piperidin-4-yl)methyl)piperidin-4-yl)methyl)pyridin-2-yl)piperidine-4-carboxamide] are 79%, 96% and 97%.
On the same counts, the results for `N#Cc1ccc(N2CCC(C(=O)Nc3ccc(CCN4CCC(CN5CCN(c6ccc7c(c6)C(=O)N(C6CCC(=O)NC6=O)C7=O)CC5)CC4)cn3)CC2)cc1C(F)(F)F` (stereo not drawn) [Example 165, 1-(4-cyano-3-(trifluoromethyl)phenyl)-N-(5-(2-(4-((4-(2-(2,6-dioxopiperidin-3-yl)-1,3-dioxoisoindolin-5-yl)piperazin-1-yl)methyl)piperidin-1-yl)ethyl)pyridin-2-yl)piperidine-4-carboxamide] are 42%, 87% and 95%.
Regarding `N#Cc1ccc(N2CCC(C(=O)Nc3ccc(CCN4CCN(CC5CCN(c6ccc7c(c6)C(=O)N(C6CCC(=O)NC6=O)C7=O)CC5)CC4)cn3)CC2)cc1C(F)(F)F` (stereo not drawn) [Example 166, 1-(4-cyano-3-(trifluoromethyl)phenyl)-N-(5-(2-(4-((1-(2-(2,6-dioxopiperidin-3-yl)-1,3-dioxoisoindolin-5-yl)piperidin-4-yl)methyl)piperazin-1-yl)ethyl)pyridin-2-yl)piperidine-4-carboxamide], the inhibition at 0.01 µM came to 69%, the inhibition at 0.1 µM worked out at 96% and the inhibition at 1 µM was found to be 97%.
On the same counts, the results for `N#Cc1ccc(N2CCC(C(=O)Nc3ccc(CCN4CCC(Oc5ccc6c(c5)C(=O)N(C5CCC(=O)NC5=O)C6=O)CC4)cn3)CC2)cc1C(F)(F)F` (stereo not drawn) [Example 167, 1-(4-cyano-3-(trifluoromethyl)phenyl)-N-(5-(2-(4-((2-(2,6-dioxopiperidin-3-yl)-1,3-dioxoisoindolin-5-yl)oxy)piperidin-1-yl)ethyl)pyridin-2-yl)piperidine-4-carboxamide] are 25%, 67% and 85%.
Consider `N#Cc1ccc(N2CCC(C(=O)Nc3ccc(OCCN4CCN(CC5CCN(c6ccc7c(c6)C(=O)N(C6CCC(=O)NC6=O)C7=O)CC5)CC4)cn3)CC2)cc1C(F)(F)F` (stereo not drawn) [Example 168, 1-(4-cyano-3-(trifluoromethyl)phenyl)-N-(5-(2-(4-((1-(2-(2,6-dioxopiperidin-3-yl)-1,3-dioxoisoindolin-5-yl)piperidin-4-yl)methyl)piperazin-1-yl)ethoxy)pyridin-2-yl)piperidine-4-carboxamide], for which the inhibition at 0.01 µM amounted to 73%, the inhibition at 0.1 µM worked out at 97% and the inhibition at 1 µM turned out to be 99%.
On the same counts, the results for `N#Cc1ccc(N2CCC(C(=O)Nc3ccc(OC4CCN(CC5CCN(c6cc7c(cc6F)C(=O)N(C6CCC(=O)NC6=O)C7=O)CC5)CC4)cn3)CC2)cc1C(F)(F)F` (stereo not drawn) [Example 170, 1-(4-cyano-3-(trifluoromethyl)phenyl)-N-(5-((1-((1-(2-(2,6-dioxopiperidin-3-yl)-6-fluoro-1,3-dioxoisoindolin-5-yl)piperidin-4-yl)methyl)piperidin-4-yl)oxy)pyridin-2-yl)piperidine-4-carboxamide] are 52%, 90% and 97%.
Take `N#Cc1ccc(N2CCC(C(=O)Nc3ccc(OC4CCN(CC5CN(c6ccc7c(c6)C(=O)N(C6CCC(=O)NC6=O)C7=O)C5)CC4)cn3)CC2)cc1C(F)(F)F` (stereo not drawn) [Example 171, 1-(4-cyano-3-(trifluoromethyl)phenyl)-N-(5-((1-((1-(2-(2,6-dioxopiperidin-3-yl)-1,3-dioxoisoindolin-5-yl)azetidin-3-yl)methyl)piperidin-4-yl)oxy)pyridin-2-yl)piperidine-4-carboxamide]: the inhibition at 0.01 µM was determined as 69%, the inhibition at 0.1 µM was determined as 93% and the inhibition at 1 µM turned out to be 95%.
On the same counts, the results for `CC1(CN2CCC(Oc3ccc(NC(=O)C4CCN(c5ccc(C#N)c(C(F)(F)F)c5)CC4)nc3)CC2)CN(c2ccc3c(c2)C(=O)N(C2CCC(=O)NC2=O)C3=O)C1` (stereo not drawn) [Example 172, 1-(4-cyano-3-(trifluoromethyl)phenyl)-N-(5-((1-((1-(2-(2,6-dioxopiperidin-3-yl)-1,3-dioxoisoindolin-5-yl)-3-methylazetidin-3-yl)methyl)piperidin-4-yl)oxy)pyridin-2-yl)piperidine-4-carboxamide] are 56%, 91% and 91%.
On the same counts, the results for `N#Cc1ccc(N2CCC(C(=O)Nc3ccc(OC4CN(CC5CCN(c6ccc7c(c6)C(=O)N(C6CCC(=O)NC6=O)C7=O)CC5)C4)cn3)CC2)cc1C(F)(F)F` (stereo not drawn) [Example 173, 1-(4-cyano-3-(trifluoromethyl)phenyl)-N-(5-((1-((1-(2-(2,6-dioxopiperidin-3-yl)-1,3-dioxoisoindolin-5-yl)piperidin-4-yl)methyl)azetidin-3-yl)oxy)pyridin-2-yl)piperidine-4-carboxamide] are 58%, 90% and 92%.
On the same counts, the results for `N#Cc1ccc(N2CCC(C(=O)Nc3ccc(OCC4CCN(CC5CCN(c6ccc7c(c6)C(=O)N(C6CCC(=O)NC6=O)C7=O)CC5)CC4)cn3)CC2)cc1C(F)(F)F` (stereo not drawn) [Example 174, 1-(4-cyano-3-(trifluoromethyl)phenyl)-N-(5-((1-((1-(2-(2,6-dioxopiperidin-3-yl)-1,3-dioxoisoindolin-5-yl)piperidin-4-yl)methyl)piperidin-4-yl)methoxy)pyridin-2-yl)piperidine-4-carboxamide] are 73%, 91% and 95%.
In the case of `N#Cc1ccc(N2CCC(C(=O)Nc3ccc(OCCC4CCN(CC5CCN(c6ccc7c(c6)C(=O)N(C6CCC(=O)NC6=O)C7=O)CC5)CC4)cn3)CC2)cc1C(F)(F)F` (stereo not drawn) [Example 175, 1-(4-cyano-3-(trifluoromethyl)phenyl)-N-(5-(2-(1-((1-(2-(2,6-dioxopiperidin-3-yl)-1,3-dioxoisoindolin-5-yl)piperidin-4-yl)methyl)piperidin-4-yl)ethoxy)pyridin-2-yl)piperidine-4-carboxamide], the inhibition at 0.01 µM is 70%, the inhibition at 0.1 µM was determined as 95% and the inhibition at 1 µM came out at 97%.
As for `N#Cc1ccc(N2CCC(C(=O)Nc3ccc(OCCN4CCN(CC(=O)Nc5cccc(NC6CCC(=O)NC6=O)c5)CC4)cn3)CC2)cc1C(F)(F)F` (stereo not drawn) [Example 176, 1-(4-cyano-3-(trifluoromethyl)phenyl)-N-(5-(2-(4-(2-((3-((2,6-dioxopiperidin-3-yl)amino)phenyl)amino)-2-oxoethyl)piperazin-1-yl)ethoxy)pyridin-2-yl)piperidine-4-carboxamide], the inhibition at 0.01 µM is -2%, the inhibition at 0.1 µM was -22% and the inhibition at 1 µM amounted to 16%.
